From US20140030350A1, “Drug Delivery Systems” (BIOCOMPATIBLES UK LIMITED, priority 2011, published 2014)

Experiment: UV/Vis scan of DTT effect on doxorubicin over time
Assay type: physicochemical
Details: high concentration of DTT, 17 hours
Method: Diothiothreitol (DTT) is a well known mild disulfide reducing agent and is used to maintain disulfide groups in their reduced thiol state. […] A high concentration of DTT was added to doxorubicin and was scanned at 1 hour time points using a UV/Vis spectrophotometer.

COc1cccc2c1C(=O)c1c(O)c3c(c(O)c1C2=O)C[C@@](O)(C(=O)CO)C[C@@H]3O[C@H]1C[C@H](N)[C@H](O)[C@H](C)O1 [doxorubicin]
Change to the absorbance of doxorubicin on exposure to DTT: very little change
